Structures are written as SMILES. Where a name gives a salt, the structure may show the parent alone.

What is called melting point is the temperature, or range, at which the solid turns liquid. `CCCCc1nc2c(N)nc3ccc(OCCC4CCN(C(=O)OC(C)(C)C)CC4)cc3c2n1C` [Example 37, tert-Butyl 4-[2-(4-amino-2-butyl-1-methyl-1H-imidazo[4,5-c]quinolin-8-yloxy)ethyl]piperidine-1-carboxylate]: the melting point lay in the range of 171.1 to 173.2 °C.
For the compound `CCCn1c(CCOC)nc2c(N)nc3cc(OC4CCN(S(C)(=O)=O)CC4)ccc3c21` [Example 390, 2-(2-Methoxyethyl)-7-{[1-(methylsulfonyl)piperidin-4-yl]oxy}-1-propyl-1H-imidazo[4,5-c]quinolin-4-amine], the melting point was 224 to 225.5 °C.
Then `CCOCc1nc2c(N)nc3cc(OC4CCN(C(=O)OC(C)(C)C)CC4)ccc3c2n1CC1COC(C)(C)O1` (stereo not drawn) [Example 374, tert-Butyl 4-{[4-amino-1-[(2,2-dimethyl-1,3-dioxolan-4-yl)methyl]-2-(ethoxymethyl)-1H-imidazo[4,5-c]quinolin-7-yl]oxy}piperidine-1-carboxylate], with 158 to 159 °C.
Then `CCOCc1nc2c(N)nc3cc(OCCCCCCNS(C)(=O)=O)ccc3c2n1CC(C)(C)NC(=O)NC(C)C` [Example 371, N-(6-{[4-Amino-2-(ethoxymethyl)-1-(2-{[(isopropylamino)carbonyl]amino}-2-methylpropyl)-1H-imidazo[4,5-c]quinolin-7-yl]oxy}hexyl)methanesulfonamide], with 190 to 194 °C.
The result for `CCCn1c(COCC)nc2c(N)nc3ccc(OCCNC(=O)N4CCOCC4)cc3c21` (as salt: hydrochloride) [Example 4, N-(2-{[4-Amino-2-(ethoxymethyl)-1-propyl-1H-imidazo[4,5-c]quinolin-8-yl]oxy}ethyl)morpholine-4-carboxamide] reads 200 to 202 °C; that for `CCOCc1nc2c(N)nc3cc(OCCCCCCNC(C)=O)ccc3c2n1CC(C)(C)NS(C)(=O)=O` [Example 46, N-(6-{[4-Amino-2-ethoxymethyl-1-(2-methanesulfonylamino-2-methylpropyl)-1H-imidazo[4,5-c]quinolin-7-yl]oxy}hexyl)acetamide], 169 to 171 °C.
In the case of `CCCc1nc2c(N)nc3cc(OCCCN4CCCS4(=O)=O)ccc3c2n1CC(C)C` [Example 13, 7-[3-(1,1-Dioxidoisothiazolidin-2-yl)propoxy]-1-(2-methylpropyl)-2-propyl-1H-imidazo[4,5-c]quinolin-4-amine], the melting point fell in the range of 142 to 144 °C.
Take `CCCn1c(COCC)nc2c(N)nc3ccc(OCCNC(=O)N4CCOCC4)cc3c21` [Example 4, N-(2-{[4-Amino-2-(ethoxymethyl)-1-propyl-1H-imidazo[4,5-c]quinolin-8-yl]oxy}ethyl)morpholine-4-carboxamide]: the melting point lay within 203 to 208 °C.
The result for `CCCc1nc2c(N)nc3cc(OCCN4CCCC4=O)ccc3c2n1CC(C)C` [Example 18, 1-{2-[4-Amino-1-(2-methylpropyl)-2-propyl-1H-imidazo[4,5-c]quinolin-7-yloxy]ethyl}pyrrolidin-2-one] reads 206 to 208 °C.
The result for `Cc1nc2c(N)nc3ccc(OCC(=O)O)cc3c2n1C` [Example 44, 2-[(4-Amino-1,2-dimethyl-1H-imidazo[4,5-c]quinolin-8-yl)oxy]acetic acid] reads 298 °C (dec.).
The result for `CCCn1c(COC)nc2c(N)nc3ccc(OCCC4CCCN4C)cc3c21` (stereo not drawn) [Example 567, 2-(Methoxymethyl)-8-[2-(1-methylpyrrolidin-2-yl)ethoxy]-1-propyl-1H-imidazo[4,5-c]quinolin-4-amine] reads 155 to 157 °C.
The compound `CCCn1c(CCO)nc2c(N)nc3cc(OCCCNC(=O)c4cccnc4)ccc3c21` [Example 396, N-(3-{[4-Amino-2-(2-hydroxyethyl)-1-propyl-1H-imidazo[4,5-c]quinolin-7-yl]oxy}propyl)nicotinamide] came in with a melting point of 183.5 to 184.5 °C.
The result for `CCCn1c(CCOC)nc2c(N)nc3cc(OC4CCN(C(=O)NC(C)C)CC4)ccc3c21` [Example 388, 4-{[4-Amino-2-(2-methoxyethyl)-1-propyl-1H-imidazo[4,5-c]quinolin-7-yl]oxy}-N-isopropylpiperidine-1-carboxamide] reads 176 to 179 °C.
Then `CCCCc1nc2c(N)nc3ccc(OCCCCC(=O)N4CCOCC4)cc3c2n1C` (as salt: trifluoroacetate) [Example 31, 2-Butyl-1-methyl-8-[(5-morpholin-4-yl-5-oxopentyl)oxy]-1H-imidazo[4,5-c]quinolin-4-amine trifluoroacetate], with 155.5 to 156.2 °C.
`CCc1nc2c(N)nc3cc(OCCNC(=O)OC(C)(C)C)ccc3c2n1CC1CCOCC1` [Example 551, tert-Butyl 2-{[4-amino-2-ethyl-1-(tetrahydro-2H-pyran-4-ylmethyl)-1H-imidazo[4,5-c]quinolin-7-yl]oxy}ethylcarbamate] returned a melting point of 200 to 201 °C.
The result for `CCCn1c(COC)nc2c(N)nc3ccc(OCCN4CCCCC4)cc3c21` [Example 559, 2-Methoxymethyl-8-(2-piperidin-1-ylethoxy)-1-propyl-1H-imidazo[4,5-c]quinolin-4-amine] reads 160 to 162 °C.
The compound `CCCCc1nc2c(N)nc3ccc(OCC(=O)N(CCOC)CCOC)cc3c2n1C` [Example 36, 2-[(4-Amino-2-butyl-1-methyl-1H-imidazo[4,5-c]quinolin-8-yl)oxy]-N,N-bis(2-methoxyethyl)acetamide] showed a melting point of 125 to 128 °C.
Then `CCCn1c(COCC)nc2c(N)nc3ccc(OC4CCN(S(C)(=O)=O)CC4)cc3c21` [Example 413, 2-(Ethoxymethyl)-8-{[1-(methylsulfonyl)piperidin-4-yl]oxy}-1-propyl-1H-imidazo[4,5-c]quinolin-4-amine], with 240 to 243.5 °C; and `CCCc1nc2c(N)nc3cc(OCCCNC(=O)C(C)C)ccc3c2n1CC(C)C` [Example 15, N-{3-[4-Amino-1-(2-methylpropyl)-2-propyl-1H-imidazo[4,5-c]quinolin-7-yloxy]propyl}-2-methylpropanamide], with 179 to 181 °C.
Then `Cc1nc2c(N)nc3cc(OCCNC(=O)C(C)C)ccc3c2n1CC(C)C` [Example 17, N-{2-[4-Amino-2-methyl-1-(2-methylpropyl)-1H-imidazo[4,5-c]quinolin-7-yloxy]ethyl}-2-methylpropanamide], with 205 to 206 °C.
The result for `CCOCc1nc2c(N)nc3cc(OCCN4CCOCC4)ccc3c2n1CC(C)(C)O` [Example 647, 1-[4-Amino-2-(ethoxymethyl)-7-(2-morpholin-4-ylethoxy)-1H-imidazo[4,5-c]quinolin-1-yl]-2-methylpropan-2-ol] reads 161 to 163 °C; that for `CCCc1nc2c(N)nc3cc(OCCCNS(C)(=O)=O)ccc3c2n1CC(C)C` [Example 11, N-{3-[4-Amino-1-(2-methylpropyl)-2-propyl-1H-imidazo[4,5-c]quinolin-7-yloxy]propyl}methanesulfonamide], 166.5 to 168.5 °C; that for `CCCn1c(COC)nc2c(N)nc3ccc(OCCCOC(=O)N4CCOCC4)cc3c21` [Example 555, 3-{[4-Amino-2-(methoxymethyl)-1-propyl-1H-imidazo[4,5-c]quinolin-8-yl]oxy}propyl morpholine-4-carboxylate], 173 to 174 °C.
Regarding `CCCc1nc2c(N)nc3cc(OC4CCOC4)ccc3c2n1CC(C)C` (stereo not drawn) [Example 55, 1-(2-Methylpropyl)-2-propyl-7-(tetrahydrofuran-3-yloxy)-1H-imidazo[4,5-c]quinolin-4-amine], the melting point was in the range of 178 to 182 °C.
The result for `CCCn1c(COC)nc2c(N)nc3ccc(OCCCN4CCOCC4)cc3c21` [Example 554, 2-Methoxymethyl-8-(3-morpholin-4-ylpropoxy)-1-propyl-1H-imidazo[4,5-c]quinolin-4-amine] reads 193 to 196 °C; that for `CCc1nc2c(N)nc3cc(OCCNC(=O)NC(C)C)ccc3c2n1CC1CCOCC1` [Example 651, N-(2-{[4-Amino-2-ethyl-1-(tetrahydro-2H-pyran-4-ylmethyl)-1H-imidazo[4,5-c]quinolin-7-yl]oxy}ethyl)-N′-isopropylurea], 223 to 225 °C; that for `CCCn1c(COC)nc2c(N)nc3ccc(OCC4CCCN(C)C4)cc3c21` (stereo not drawn) [Example 558, 2-Methoxymethyl-8-(1-methylpiperidin-3-ylmethoxy)-1-propyl-1H-imidazo[4,5-c]quinolin-4-amine], 194 to 196 °C.
The result for `Cc1nc2c(N)nc3cc(OCCC4CCN(C(=O)NC5CCCCC5)CC4)ccc3c2n1CC(C)C` [Example 403, 4-{2-[(4-Amino-1-isobutyl-2-methyl-1H-imidazo[4,5-c]quinolin-7-yl)oxy]ethyl}-N-cyclohexylpiperidine-1-carboxamide] reads 213.7 to 215.7 °C.
The result for `CCCCc1nc2c(N)nc3ccc(OCC(=O)N(CC)CC)cc3c2n1C` [Example 35, 2-[(4-Amino-2-butyl-1-methyl-1H-imidazo[4,5-c]quinolin-8-yl)oxy]-N,N-diethylacetamide] reads 185.9 to 188.1 °C; that for `CCCn1c(COCC)nc2c(N)nc3cc(OCC(=O)N4CCOCC4)ccc3c21` [Example 648, 2-(Ethoxymethyl)-7-(2-morpholin-4-yl-2-oxoethoxy)-1-propyl-1H-imidazo[4,5-c]quinolin-4-amine], 213 °C.
`CCCn1c(CCOC)nc2c(N)nc3cc(OC4CCN(C(N)=O)CC4)ccc3c21` [Example 391, 4-{[4-Amino-2-(2-methoxyethyl)-1-propyl-1H-imidazo[4,5-c]quinolin-7-yl]oxy}piperidine-1-carboxamide] came in with a melting point of 207 to 208.5 °C.
The result for `CCCc1nc2c(N)nc3cc(OCC4CCCCO4)ccc3c2n1CC(C)C` (stereo not drawn) [Example 54, 1-(2-Methylpropyl)-2-propyl-7-(tetrahydropyran-2-ylmethoxy)-1H-imidazo[4,5-c]quinolin-4-amine] reads 126 °C (dec.); that for `CCCCc1nc2c(N)nc3ccc(OCC(=O)N(C)Cc4ccccc4)cc3c2n1C` [Example 34, 2-[(4-Amino-2-butyl-1-methyl-1H-imidazo[4,5-c]quinolin-8-yl)oxy]-N-benzyl-N-methylacetamide], 167.4 to 168.8 °C.
